# Laboratory results taken from ChEMBL document CHEMBL1201862, “PubChem BioAssay data set” (2004).
# Calls of active or inactive are those of the source.
# Legend:
# [1] = target: T1, Small ubiquitin-related modifier 1 (Homo sapiens, UniProt P63165); experiment: inhibitors of SUMO1 peptide binding, dose response, biochemical, fluorescence polarization, uHTS hits (AID 624382); format: functional; settings: read-out: IC50_Mean
# [2] = target: Cyclin-dependent kinase 5/CDK5 activator 1 (Homo sapiens, UniProt Q00535); experiment: CDK5/p35 kinase inhibitors, dose response, biochemical, cherry-picked samples, set 2 (AID 504545)
# Chain of Cyclin-dependent kinase 5/CDK5 activator 1 (Q00535 whole entry): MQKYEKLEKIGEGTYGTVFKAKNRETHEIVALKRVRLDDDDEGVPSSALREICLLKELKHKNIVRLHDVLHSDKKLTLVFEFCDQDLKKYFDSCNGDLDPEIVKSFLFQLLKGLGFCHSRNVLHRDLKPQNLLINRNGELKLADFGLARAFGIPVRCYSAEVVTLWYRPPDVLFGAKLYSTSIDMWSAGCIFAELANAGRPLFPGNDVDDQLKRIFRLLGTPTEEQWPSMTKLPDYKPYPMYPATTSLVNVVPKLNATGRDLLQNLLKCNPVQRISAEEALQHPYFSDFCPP
# Chain of Cyclin-dependent kinase 5/CDK5 activator 1 (Q15078 whole entry, further chain): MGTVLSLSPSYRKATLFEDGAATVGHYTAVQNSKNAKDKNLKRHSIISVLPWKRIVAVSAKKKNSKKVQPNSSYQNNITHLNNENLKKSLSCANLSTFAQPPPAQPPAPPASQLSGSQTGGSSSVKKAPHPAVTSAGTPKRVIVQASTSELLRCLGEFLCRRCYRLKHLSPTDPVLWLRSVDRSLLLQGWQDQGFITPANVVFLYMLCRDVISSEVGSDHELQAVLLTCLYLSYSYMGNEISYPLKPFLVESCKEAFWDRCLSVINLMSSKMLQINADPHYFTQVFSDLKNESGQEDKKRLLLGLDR
# [3] = target: T1, Small ubiquitin-related modifier 1; experiment: inhibitors of SUMO1 partner interactions, dose response, biochemical, FRET (AID 624383); format: functional; settings: read-out: IC50_Mean
# [4] = target: T2, Nucleotide-binding oligomerization domain-containing protein 1 (Homo sapiens, UniProt Q9Y239); experiment: NOD1 signaling inhibitors, SAR follow-up, revised (AID 2333); format: functional
# T2 sequence (Q9Y239 whole entry): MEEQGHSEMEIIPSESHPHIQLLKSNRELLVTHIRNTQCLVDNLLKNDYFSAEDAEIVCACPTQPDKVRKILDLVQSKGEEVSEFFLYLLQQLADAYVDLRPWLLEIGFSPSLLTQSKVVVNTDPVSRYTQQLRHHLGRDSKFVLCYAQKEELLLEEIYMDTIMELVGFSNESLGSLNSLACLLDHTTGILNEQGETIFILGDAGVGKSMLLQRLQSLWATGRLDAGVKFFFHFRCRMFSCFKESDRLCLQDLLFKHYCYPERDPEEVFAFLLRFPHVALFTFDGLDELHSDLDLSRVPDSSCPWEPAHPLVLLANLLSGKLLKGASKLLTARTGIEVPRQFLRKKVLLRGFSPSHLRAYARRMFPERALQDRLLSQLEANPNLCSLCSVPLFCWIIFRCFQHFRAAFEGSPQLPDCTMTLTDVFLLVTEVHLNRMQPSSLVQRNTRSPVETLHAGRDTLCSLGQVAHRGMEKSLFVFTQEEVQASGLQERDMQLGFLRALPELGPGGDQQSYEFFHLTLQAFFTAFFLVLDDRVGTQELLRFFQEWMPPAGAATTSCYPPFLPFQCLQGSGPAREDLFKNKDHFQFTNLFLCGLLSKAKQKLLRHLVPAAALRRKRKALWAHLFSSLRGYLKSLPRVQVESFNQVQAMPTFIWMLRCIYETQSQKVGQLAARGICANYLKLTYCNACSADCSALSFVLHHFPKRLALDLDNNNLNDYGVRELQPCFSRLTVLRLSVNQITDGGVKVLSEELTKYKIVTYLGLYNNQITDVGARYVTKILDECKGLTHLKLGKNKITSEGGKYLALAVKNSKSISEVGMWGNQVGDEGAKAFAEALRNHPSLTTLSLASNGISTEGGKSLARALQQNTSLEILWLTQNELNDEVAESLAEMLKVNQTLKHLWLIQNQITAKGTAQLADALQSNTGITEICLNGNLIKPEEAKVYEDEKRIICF
# Tumor necrosis factor = Tumor necrosis factor (Homo sapiens, UniProt P01375); experiment: TNFa-triggered NF-kB activation inhibitors, SAR follow-up, cell-based, revised (AID 2337); format: functional
# Chain of Tumor necrosis factor (P01375 whole entry): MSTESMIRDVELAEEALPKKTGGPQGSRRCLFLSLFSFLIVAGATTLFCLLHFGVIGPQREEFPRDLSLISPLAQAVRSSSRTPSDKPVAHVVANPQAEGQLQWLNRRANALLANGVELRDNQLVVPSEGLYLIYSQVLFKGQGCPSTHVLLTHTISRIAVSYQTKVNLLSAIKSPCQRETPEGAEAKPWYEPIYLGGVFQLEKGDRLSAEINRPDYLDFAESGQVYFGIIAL
# [5] = target: T3, Heat shock factor protein 1 (Mus musculus, UniProt P38532); experiment: inhibition of MG132-induced HSE-luciferase signal, confirmation, cell-based, NIH3T3, luminescence, dose retest (AID 2382); format: functional;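 also: NIH3T3 fibroblasts with HSF1-driven luciferase reporter stressed by proteasome inhibitor MG132; luminescence from HSF1-driven luciferase expression after 8 hours of MG132 stress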
# T3 sequence (P38532 whole entry): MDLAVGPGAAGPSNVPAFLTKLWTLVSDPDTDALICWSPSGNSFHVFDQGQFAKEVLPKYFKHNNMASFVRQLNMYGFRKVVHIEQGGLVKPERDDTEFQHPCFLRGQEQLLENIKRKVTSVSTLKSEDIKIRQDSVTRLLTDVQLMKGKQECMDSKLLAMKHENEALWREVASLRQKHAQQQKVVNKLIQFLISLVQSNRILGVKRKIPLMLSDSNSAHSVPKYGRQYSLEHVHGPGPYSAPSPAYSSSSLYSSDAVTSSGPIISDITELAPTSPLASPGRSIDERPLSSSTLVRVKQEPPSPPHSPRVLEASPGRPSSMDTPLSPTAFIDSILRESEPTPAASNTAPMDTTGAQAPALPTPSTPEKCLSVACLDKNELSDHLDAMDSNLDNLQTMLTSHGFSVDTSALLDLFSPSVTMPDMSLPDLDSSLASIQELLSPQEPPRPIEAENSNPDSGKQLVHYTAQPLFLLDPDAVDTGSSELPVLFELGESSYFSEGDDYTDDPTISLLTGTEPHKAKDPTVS
# [6] = target: T4, Polyadenylate-binding protein 1 (Homo sapiens, UniProt P11940); experiment: PABP1 MLLE–PAM2 interaction inhibitors, dose response, miRNA deadenylation inhibitor project, biochemical, fluorescence polarization, Cy5-PAM2 peptide, secondary (AID 602260); format: functional; settings: read-out: IC50_Mean
# T4 sequence (P11940 whole entry): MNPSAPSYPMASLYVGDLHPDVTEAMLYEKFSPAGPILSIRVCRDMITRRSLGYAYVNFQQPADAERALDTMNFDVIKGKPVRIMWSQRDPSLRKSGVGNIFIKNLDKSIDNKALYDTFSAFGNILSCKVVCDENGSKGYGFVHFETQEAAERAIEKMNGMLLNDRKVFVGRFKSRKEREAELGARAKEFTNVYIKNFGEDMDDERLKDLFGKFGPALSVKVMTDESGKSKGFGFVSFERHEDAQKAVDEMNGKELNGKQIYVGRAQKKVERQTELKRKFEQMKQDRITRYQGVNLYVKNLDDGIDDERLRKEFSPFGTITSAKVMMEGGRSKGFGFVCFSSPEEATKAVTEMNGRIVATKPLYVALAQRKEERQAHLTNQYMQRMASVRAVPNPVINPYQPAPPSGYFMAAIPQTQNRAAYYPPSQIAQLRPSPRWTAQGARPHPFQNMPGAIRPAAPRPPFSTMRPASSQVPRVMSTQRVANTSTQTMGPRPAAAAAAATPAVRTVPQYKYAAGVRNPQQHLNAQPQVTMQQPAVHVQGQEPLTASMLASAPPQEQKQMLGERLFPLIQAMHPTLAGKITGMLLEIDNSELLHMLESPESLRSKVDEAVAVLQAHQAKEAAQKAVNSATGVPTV
# Bcl-2-like protein 10 = target: T5, Bcl-2-like protein 10 (Homo sapiens, UniProt Q9HD36); experiment: displacers of TR3 peptide from Bcl-B, primary screen, selectivity assay for Bfl-1 inhibitor project, biochemical, fluorescence polarization, FITC-TR3 peptide (AID 748);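 also: fluorescence polarization from a fluorescein-labelled TR3 peptide binding purified Bcl-B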
# T5 sequence (Q9HD36 whole entry): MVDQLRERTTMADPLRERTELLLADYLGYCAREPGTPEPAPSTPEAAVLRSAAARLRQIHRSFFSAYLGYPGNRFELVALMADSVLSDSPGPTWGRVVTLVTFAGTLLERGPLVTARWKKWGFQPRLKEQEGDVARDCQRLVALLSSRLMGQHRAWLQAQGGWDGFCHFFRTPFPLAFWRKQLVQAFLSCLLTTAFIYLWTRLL
# [7] = target: T4, Polyadenylate-binding protein 1; experiment: PABP1 MLLE–PAM2 binding inhibitor potency, dose response, biochemical, fluorescence polarization, FITC-PAM2 peptide (AID 602259); format: functional; settings: read-out: IC50_Mean
# Estrogen receptor beta = Estrogen receptor beta (Homo sapiens, UniProt Q92731); experiment: ERβ–SRC-3 coactivator interaction inhibitors, confirmation, orthogonal assay, biochemical, ELISA, streptavidin-HRP readout (AID 1060)
# Chain of Estrogen receptor beta (Q92731 whole entry): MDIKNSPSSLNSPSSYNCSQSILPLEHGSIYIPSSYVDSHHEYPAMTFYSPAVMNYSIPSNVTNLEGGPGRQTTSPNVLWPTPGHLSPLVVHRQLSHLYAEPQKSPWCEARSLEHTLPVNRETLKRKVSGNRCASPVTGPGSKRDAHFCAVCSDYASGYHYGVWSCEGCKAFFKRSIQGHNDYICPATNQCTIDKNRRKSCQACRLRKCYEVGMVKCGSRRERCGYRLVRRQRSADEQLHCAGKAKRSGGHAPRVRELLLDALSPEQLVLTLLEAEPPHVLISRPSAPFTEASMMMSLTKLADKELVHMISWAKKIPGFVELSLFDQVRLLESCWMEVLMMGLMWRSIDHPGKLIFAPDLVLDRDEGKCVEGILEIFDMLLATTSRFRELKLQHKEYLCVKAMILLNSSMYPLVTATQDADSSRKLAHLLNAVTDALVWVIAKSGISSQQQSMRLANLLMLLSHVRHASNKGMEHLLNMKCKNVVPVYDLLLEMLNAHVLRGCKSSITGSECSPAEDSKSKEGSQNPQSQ
# T1 sequence (P63165 whole entry): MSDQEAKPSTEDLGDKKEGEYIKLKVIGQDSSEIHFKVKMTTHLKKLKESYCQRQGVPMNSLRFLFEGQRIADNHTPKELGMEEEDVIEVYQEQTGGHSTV
IC50 [6],IC50 (Bcl-2-like protein 10),IC50 [7],IC50 (Estrogen receptor beta),Structure (SMILES),IC50 [1],AC50 [2],IC50 [3],IC50 [4],IC50 (Tumor necrosis factor),EC50 [5]
,,,,CC(C)[C@H](CO)Nc1nc(Nc2ccc(Cl)c(C(=O)O)c2)c2ncn(C(C)C)c2n1,> 66.6 µM (inactive),9.44 µM (active),21.4 µM (inactive),,,
,,,,Cc1ccc(C(=O)ON=C(N)c2ccccn2)c(C)c1,,11.8 µM (active),,0.772 µM (active),0.0706 µM (active),< 0.16 µM (active)
> 66 µM (inactive),> 6.25 µM (inactive),57.6 µM (inactive),< 0.023 µM (not active),Cc1cc(C)c2cc3c(ccn3C3OC[C@H](O)[C@H](O)[C@H]3O)cc2n1 (stereo partly specified),,,,,,
